According to ChEMBL document CHEMBL3217567, “Differential activation of soluble guanylate cyclase by a series of aryl disulfanyl dinitrate esters” (Medchemcomm, 2014):

Key:
[1] = species on record: Rattus norvegicus; assay: Activation of Sprague-Dawley rat soluble guanylate cyclase after 10 mins in presence of cysteine relative to GTN
[2] = species on record: Rattus norvegicus; assay: (§1) Activation of Sprague-Dawley rat soluble guanylate cyclase after 10 mins in presence of cysteine
[3] = species on record: Rattus norvegicus; assay: Activation of Sprague-Dawley rat soluble guanylate cyclase after 10 mins relative to GTN
[4] = Activation of Sprague-Dawley rat soluble guanylate cyclase after 10 mins
[5] = target: Soluble guanylate cyclase (Homo sapiens) (UniProt Q02153+O75343+P33402+Q02108); assay: Activation of soluble guanylate cyclase (unknown origin) assessed as apparent initial rate of oxidation of oxyhemoglobin in presence of cysteine relative to GTN; assay type: protein-complex assay
[6] = as §1

| Structure (SMILES) | Emax [1] | Activity [2] | Efficacy [3] | EC50 [4] | Ratio [5] | EC50 [6] |
| --- | --- | --- | --- | --- | --- | --- |
| O=[N+]([O-])OCC(CSSc1ccc(Cl)cc1)O[N+](=O)[O-] (stereo not drawn) | 195% | Dose-dependent effect | – | – | – | – |
| O=[N+]([O-])OCC(CSSc1ccc(F)cc1)O[N+](=O)[O-] (stereo not drawn) | 192% | Dose-dependent effect | – | – | – | – |
| Cc1ccc(SSCC(CO[N+](=O)[O-])O[N+](=O)[O-])cc1 (stereo not drawn) | 279% | Dose-dependent effect | 114% | 170 µM | – | – |
| O=[N+]([O-])OCC(CSSc1ccc(Br)cc1)O[N+](=O)[O-] (stereo not drawn) | 218% | Dose-dependent effect | 60% | 40 µM | – | – |
| COc1ccc(SSCC(CO[N+](=O)[O-])O[N+](=O)[O-])cc1 (stereo not drawn) | 245% | Dose-dependent effect | – | – | 2 | – |
| O=[N+]([O-])OCC(CSSc1ccccc1)O[N+](=O)[O-] (stereo not drawn) | 201% | Dose-dependent effect | – | – | – | – |
| O=[N+]([O-])OCC(CO[N+](=O)[O-])O[N+](=O)[O-] [NITROGLYCERIN] | – | – | – | – | – | 200 µM |
